For the test, the target named is MDM2 (Homo sapiens, UniProt Q00987). The experiment in a line: MDM2 binding screen of Libraries 3 and 4: displacement of fluorescent probe F-M8 at 750 nM macrocycle. As to the method:
The cyclic peptide scaffolds required for Libraries 3 and 4 were synthesized as described for those used in Library 2. Due to the presence of many N-methylated amino acids which are more difficult to couple, 200 mM HOAt was applied together with HATU. The scaffolds were diluted to 2 mM in DMSO, and 15 nL were transferred using acoustic dispensing, followed by 15 nL DMSO containing carboxylic acids (40 mM, 20 equiv.), HBTU (40 mM) and DABCO (40 mM). After 6 h reaction at room temperature, 370 nL of DMSO was added to each well, followed by 5 μL of 100 mM Tris-Cl pH 7.4 containing 0.01% v/v Tween20, for quenching overnight.

The mark [1] stands for this setting: Panel b, Library 3: 63 scaffolds combinatorially acylated with 15 carboxylic acids at 30 picomole scale, displacement of fluorescent peptide probe, macrocycle 750 nM.
[2] abbreviates: Panel c, Library 4: best nine scaffolds and 15 additional carboxylic acids, displacement of fluorescent probe.

MDM2, sequence (Q00987 whole entry): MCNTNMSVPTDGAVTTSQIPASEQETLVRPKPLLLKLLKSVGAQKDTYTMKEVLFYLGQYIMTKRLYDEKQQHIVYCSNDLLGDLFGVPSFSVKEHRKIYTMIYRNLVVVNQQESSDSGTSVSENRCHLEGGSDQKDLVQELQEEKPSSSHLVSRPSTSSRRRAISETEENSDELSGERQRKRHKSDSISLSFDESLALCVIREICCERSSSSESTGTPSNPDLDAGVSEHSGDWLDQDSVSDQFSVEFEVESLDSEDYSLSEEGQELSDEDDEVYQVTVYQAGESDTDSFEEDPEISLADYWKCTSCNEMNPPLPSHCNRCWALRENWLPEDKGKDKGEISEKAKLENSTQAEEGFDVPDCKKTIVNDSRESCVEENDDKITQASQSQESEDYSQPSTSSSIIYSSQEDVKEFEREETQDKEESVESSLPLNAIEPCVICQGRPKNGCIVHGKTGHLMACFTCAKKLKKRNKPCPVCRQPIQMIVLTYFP

On to `O=C(/C=C/c1ccc(OCc2ccccc2)cc1)NCCN1CC(=O)N[C@@H](Cc2c[nH]c3cc(Cl)ccc23)C(=O)NCCSSCCC(=O)NCC2(CC2)C1=O` [X-Amcp-N-Aeg-Cl-Trp + Acid 110], for which, under setting [1], the “fraction of fluorescent probe displaced” value is 0.015.
On the same count and under the same terms, the result for `Cn1cc(C[C@@H]2NC(=O)[C@@H](CNC(=O)c3ccc4ccccc4c3)NC(=O)C3(CC3)CNC(=O)CCSSCCNC2=O)c2ccccc21` [X-Amcp-D-Dap-Me-Trp + Acid 107] reads 0.018.
On the same count and under the same terms, the result for `O=C1CCSSCCNC(=O)[C@H](Cc2ccc3ccccc3c2)NC(=O)[C@H](CNC(=O)c2cccc(Oc3ccccc3)c2)NC(=O)C2(CC2)CN1` [X-Amcp-Dap-2-Nal + Acid 111] reads 0.00133; that for `O=C1CN(CCNC(=O)C2COc3ccccc3O2)C(=O)[C@@H]2CN(CCO2)C(=O)CCSSCCNC(=O)[C@H](Cc2c[nH]c3cc(Cl)ccc23)N1` (stereo partly shown) [X-Cop-N-Aeg-Cl-Trp + Acid 115], 0.021; that for `CC(Oc1cccc(Cl)c1)C(=O)NC[C@H]1NC(=O)[C@@H]2CN(CCO2)C(=O)CCSSCCNC(=O)[C@H](Cc2cccc3ccccc23)NC1=O` (stereo partly drawn) [X-Cop-D-Dap-1-NaI + Acid 113], 0.008.
Turning to `O=C(/C=C/c1ccc(F)cc1)NC[C@@H]1NC(=O)[C@H]2CCCN(C2)C(=O)CCSSCCNC(=O)[C@H](Cc2ccc3ccccc3c2)NC1=O` [X-Nip-Dap-2-Nal + Acid 116], the “fraction of fluorescent probe displaced” value under setting [2] was 0.052.
In the case of `O=C(CCS(=O)(=O)c1ccccc1)NC[C@@H]1NC(=O)[C@@H]2CN(CCO2)C(=O)CCSSCCNC(=O)[C@H](Cc2c[nH]c3cc(Cl)ccc23)NC1=O` [X-Cop-Dap-Cl-Trp + Acid 114], the “fraction of fluorescent probe displaced” value under setting [1] was -0.039.
Turning to `Cn1cc(C[C@@H]2NC(=O)[C@H](CNC(=O)/C=C/c3ccc(F)cc3)NC(=O)[C@H]3CCCN(C3)C(=O)CCSSCCNC2=O)c2ccccc21` [X-Nip-Dap-Me-Trp + Acid 116], the “fraction of fluorescent probe displaced” value under setting [2] was 0.052.
In the case of `O=C1CN(CCNC(=O)c2cccc(Oc3ccccc3)c2)C(=O)[C@H]2CCCN(C2)C(=O)CCSSCCNC(=O)[C@H](Cc2c[nH]c3ccccc23)N1` [X-Nip-N-Aeg-Trp + Acid 111], the “fraction of fluorescent probe displaced” value under setting [1] was 0.015.
Still for that read-out and setting: for `O=C(CCS(=O)(=O)c1ccccc1)NC[C@H]1NC(=O)[C@@H]2CN(CCO2)C(=O)CCSSCCNC(=O)[C@H](Cc2ccc3ccccc3c2)NC1=O` [X-Cop-D-Dap-2-Nal + Acid 114] the value was -0.00533; for `CN1C(=O)CN(CCNC(=O)/C=C/c2ccc3ccccc3c2)C(=O)C2(CC2)CNC(=O)CCSSCCNC(=O)[C@@H]1Cc1c[nH]c2ccccc12` [X-Amcp-N-Aeg-NMe-Trp + Acid 112], -0.019.
`O=C1CN(CCNC(=O)c2ccc3ccccc3c2)C(=O)[C@@H]2CN(CCO2)C(=O)CCSSCCNC(=O)[C@H](Cc2c[nH]c3ccccc23)N1` [X-Cop-N-Aeg-Trp + Acid 107]: under setting [1], the “fraction of fluorescent probe displaced” value is listed as 0.00455.
Still for that read-out and setting: for `CN1C(=O)CN(CCNC(=O)c2ccc3ccccc3c2)C(=O)C2(CC2)CNC(=O)CCSSCCNC(=O)[C@@H]1Cc1c[nH]c2ccccc12` [X-Amcp-N-Aeg-NMe-Trp + Acid 107] the value was 0.031; for `O=C(/C=C/c1ccc(OCc2ccccc2)cc1)NC[C@@H]1NC(=O)[C@H]2CCCN(C2)C(=O)CCSSCCNC(=O)[C@H](Cc2c[nH]c3ccccc23)NC1=O` [X-Nip-Dap-Trp + Acid 110], 0.015; for `O=C(NC[C@H]1NC(=O)[C@H]2CCCN(C2)C(=O)CCSSCCNC(=O)[C@H](Cc2cccc3ccccc23)NC1=O)c1ccc(Cl)s1` [X-Nip-D-Dap-1-NaI + Acid 14], -0.019.
Regarding `Cn1cc(C[C@@H]2NC(=O)CN(CCNC(=O)c3ccc(Cl)s3)C(=O)C3(CC3)CNC(=O)CCSSCCNC2=O)c2ccccc21` [X-Amcp-N-Aeg-Me-Trp + Acid 14], the “fraction of fluorescent probe displaced” value under setting [1] is recorded as -0.00533.
On the same count and under the same terms, the result for `O=C(NC[C@@H]1NC(=O)[C@H]2CCCN(C2)C(=O)CCSSCCNC(=O)[C@H](Cc2cccc3ccccc23)NC1=O)c1ccc(Cl)s1` [X-Nip-Dap-1-NaI + Acid 14] reads 0.028; that for `O=C(CCS(=O)(=O)c1ccccc1)NC[C@H]1NC(=O)C2(CC2)CNC(=O)CCSSCCNC(=O)[C@@H](Cc2c[nH]c3ccccc23)NC1=O` [X-Amcp-D-Dap-D-Trp + Acid 114], 0.008; that for `O=C1CN(CCNC(=O)C2COc3ccccc3O2)C(=O)[C@@H]2CN(CCO2)C(=O)CCSSCCNC(=O)[C@H](Cc2c[nH]c3ccccc23)N1` (stereo partly shown) [X-Cop-N-Aeg-Trp + Acid 115], -0.012.
`O=C(NC[C@H]1NC(=O)[C@H]2CCCN(C2)C(=O)CCSSCCNC(=O)[C@H](Cc2c[nH]c3cc(Cl)ccc23)NC1=O)c1ccc(Cl)cc1` [X-Nip-D-Dap-Cl-Trp + Acid 25]: under setting [1], the “fraction of fluorescent probe displaced” value is 0.041.
Still for that read-out and setting: for `CN1C(=O)[C@H](CNC(=O)CCS(=O)(=O)c2ccccc2)NC(=O)C2(CC2)CNC(=O)CCSSCCNC(=O)[C@@H]1Cc1c[nH]c2ccccc12` [X-Amcp-Dap-NMe-Trp + Acid 114] the value was 0.055.
In the case of `CCOc1ccc(/C=C/C(=O)NC[C@@H]2NC(=O)[C@@H]3CN(CCO3)C(=O)CCSSCCNC(=O)[C@H](Cc3c[nH]c4cc(Cl)ccc34)NC2=O)cc1` [X-Cop-Dap-Cl-Trp + Acid 117], under setting [2], the “fraction of fluorescent probe displaced” value was determined as 0.175.
With `Cn1cc(C[C@@H]2NC(=O)[C@H](CNC(=O)c3ccc(Cl)cc3)NC(=O)[C@@H]3CN(CCO3)C(=O)CCSSCCNC2=O)c2ccccc21` [X-Cop-Dap-Me-Trp + Acid 25], under setting [1], the “fraction of fluorescent probe displaced” value was 0.015.
`O=C(/C=C/c1ccc(OCc2ccccc2)cc1)NC[C@@H]1NC(=O)C2(CC2)CNC(=O)CCSSCCNC(=O)[C@H](Cc2c[nH]c3ccccc23)NC1=O` [X-Amcp-Dap-Trp + Acid 110]: the “fraction of fluorescent probe displaced” value under setting [1] is 0.015.
Regarding `CN1C(=O)C(CNC(=O)c2ccc3ccccc3c2)NC(=O)C2CN(CCO2)C(=O)CCSSCCNC(=O)C1Cc1c[nH]c2ccccc12` (stereo not drawn) [X-Cop-Dap-NMe-Trp + Acid 107], the “fraction of fluorescent probe displaced” value under setting [1] came out at 0.011.
On to `O=C(/C=C/c1ccc2ccccc2c1)NC[C@@H]1NC(=O)[C@@H]2CN(CCO2)C(=O)CCSSCCNC(=O)[C@H](Cc2c[nH]c3ccccc23)NC1=O` [X-Cop-Dap-Trp + Acid 112], for which the “fraction of fluorescent probe displaced” value under setting [1] is on record as 0.168.
Consider `CN1C(=O)[C@@H](CNC(=O)c2cccc(Oc3ccccc3)c2)NC(=O)C2(CC2)CNC(=O)CCSSCCNC(=O)[C@@H]1Cc1c[nH]c2ccccc12` [X-Amcp-D-Dap-NMe-Trp + Acid 111], for which the “fraction of fluorescent probe displaced” value under setting [1] is on record as 0.00133.
For the compound `O=C(/C=C/c1ccc(F)cc1)NC[C@@H]1NC(=O)[C@H]2CCCN(C2)C(=O)CCSSCCNC(=O)[C@H](Cc2c[nH]c3ccccc23)NC1=O` [X-Nip-Dap-Trp + Acid 116], the “fraction of fluorescent probe displaced” value under setting [2] is 0.443.
For `O=C(CCS(=O)(=O)c1ccccc1)NC[C@H]1NC(=O)[C@H]2CCCN(C2)C(=O)CCSSCCNC(=O)[C@H](Cc2c[nH]c3ccccc23)NC1=O` [X-Nip-D-Dap-Trp + Acid 114], the “fraction of fluorescent probe displaced” value under setting [1] is on record as -0.00533.
`Cn1cc(C[C@@H]2NC(=O)CN(CCNC(=O)c3ccc(Cl)s3)C(=O)[C@H]3CCCN(C3)C(=O)CCSSCCNC2=O)c2ccccc21` [X-Nip-N-Aeg-Me-Trp + Acid 14]: the “fraction of fluorescent probe displaced” value under setting [1] is given as -0.012.
On the same count and under the same terms, the result for `O=C1CCSSCCNC(=O)[C@H](Cc2c[nH]c3ccccc23)NC(=O)[C@@H](CNC(=O)c2ccc3ccccc3c2)NC(=O)C2(CC2)CN1` [X-Amcp-D-Dap-Trp + Acid 107] reads 0.024.
On the same count and under the same terms, the result for `O=C(O)c1cccc(Oc2ccccc2)c1` [Acid 111] reads 0.015; that for `O=C(/C=C/c1ccc(OCc2ccccc2)cc1)NC[C@H]1NC(=O)[C@H]2CCCN(C2)C(=O)CCSSCCNC(=O)[C@@H](Cc2c[nH]c3ccccc23)NC1=O` [X-Nip-D-Dap-D-Trp + Acid 110], -0.012; that for `CN1C(=O)CN(CCNC(=O)c2ccc(Cl)s2)C(=O)[C@H]2CCCN(C2)C(=O)CCSSCCNC(=O)[C@@H]1Cc1c[nH]c2ccccc12` [X-Nip-N-Aeg-NMe-Trp + Acid 14], 0.00133.
For `O=C(/C=C/c1ccc2ccccc2c1)NC[C@H]1NC(=O)C2(CC2)CNC(=O)CCSSCCNC(=O)[C@H](Cc2c[nH]c3cc(Cl)ccc23)NC1=O` [X-Amcp-D-Dap-Cl-Trp + Acid 112], the “fraction of fluorescent probe displaced” value under setting [1] is recorded as -0.00533.
With `O=C1CCSSCCNC(=O)C(Cc2ccc3ccccc3c2)NC(=O)CN(CCNC(=O)C2CC2c2ccccc2)C(=O)C2(CC2)CN1` (stereo not shown) [X-Amcp-N-Aeg-2-Nal + Acid 105], the “fraction of fluorescent probe displaced” value under setting [1] is listed as -0.041.
For `O=C(CCS(=O)(=O)c1ccccc1)NC[C@H]1NC(=O)[C@H]2CCCN(C2)C(=O)CCSSCCNC(=O)[C@H](Cc2ccc3ccccc3c2)NC1=O` [X-Nip-D-Dap-2-Nal + Acid 114], the “fraction of fluorescent probe displaced” value under setting [1] was determined as 0.048.
Consider `O=C1CCSSCCNC(=O)[C@@H](Cc2c[nH]c3ccccc23)NC(=O)CN(CCNC(=O)c2cccc(Oc3ccccc3)c2)C(=O)C2(CC2)CN1` [X-Amcp-N-Aeg-D-Trp + Acid 111], for which, under setting [1], the “fraction of fluorescent probe displaced” value was 0.008.
For `O=C(/C=C/c1ccc2ccccc2c1)NC[C@@H]1NC(=O)C2(CC2)CNC(=O)CCSSCCNC(=O)[C@@H](Cc2c[nH]c3ccccc23)NC1=O` [X-Amcp-Dap-D-Trp + Acid 112], under setting [1], the “fraction of fluorescent probe displaced” value came out at 0.015.
For `O=C(CCS(=O)(=O)c1ccccc1)NCCN1CC(=O)N[C@@H](Cc2cccc3ccccc23)C(=O)NCCSSCCC(=O)NCC2(CC2)C1=O` [X-Amcp-N-Aeg-1-NaI + Acid 114], the “fraction of fluorescent probe displaced” value under setting [1] is listed as 0.00133.
